Data: patent US12077503B2, “Substituted cyclic amides and their use as herbicides” (FMC CORPORATION, priority 2015, dated 2024)

Legend:
Assay type in all cases: in vivo
[1] = tested on: Kochia (Kochia scoparia); assay: Test A preemergence; conditions: Bassia scoparia, pre-emergence, 240 h
How it was run: (§1)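 Each rating is a visual injury score from 0 to 100 given about 10 d after treatment, judged against untreated controls kept alongside in the greenhouse. In loam soil–sand blend, seeds got a preemergence directed soil spray, while postemergence plants were 2 to 10 cm tall at spraying.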

[2] = tested on: barnyardgrass (Echinochloa crus-galli); assay: Test A preemergence; conditions: Echinochloa crus-galli, pre-emergence, 240 h
How it was run: as §1

[3] = tested on: giant foxtail (Setaria faberii); assay: Test A preemergence; conditions: Setaria faberi, pre-emergence, 240 h
How it was run: as §1

[4] = tested on: pigweed (Amaranthus retroflexus); assay: Test A preemergence; conditions: Amaranthus retroflexus, pre-emergence, 240 h
[5] = tested on: ragweed (common ragweed, Ambrosia elatior); assay: Test A preemergence; conditions: Ambrosia artemisiifolia, pre-emergence, 240 h
How it was run: as §1

[6] = tested on: ryegrass, Italian (Italian ryegrass, Lolium multiflorum); assay: Test A preemergence; conditions: Lolium multiflorum, pre-emergence, 240 h
How it was run: as §1

[7] = tested on: Galium (catchweed bedstraw, Galium aparine); assay: Test A postemergence; conditions: Galium, post-emergence, 240 h, read-out: Plant response rating, Galium
How it was run: as §1

[8] = tested on: Kochia (Kochia scoparia); assay: Test A postemergence; conditions: Bassia scoparia, post-emergence, 240 h, read-out: Plant response rating, Kochia
How it was run: as §1

[9] = tested on: barnyardgrass (Echinochloa crus-galli); assay: Test A postemergence; conditions: Echinochloa crus-galli, post-emergence, 240 h, read-out: Plant response rating, Barnyardgrass
How it was run: as §1

[10] = tested on: blackgrass (Alopecurus myosuroides); assay: Test A postemergence; conditions: Alopecurus myosuroides, post-emergence, 240 h, read-out: Plant response rating, Blackgrass
How it was run: as §1

[11] = tested on: corn (Zea mays); assay: Test A postemergence; conditions: Zea mays, post-emergence, 240 h
How it was run: as §1

[12] = tested on: giant foxtail (Setaria faberii); assay: Test A postemergence; conditions: Setaria faberi, post-emergence, 240 h, read-out: Plant response rating, Foxtail, Giant
How it was run: as §1

[13] = tested on: pigweed (Amaranthus retroflexus); assay: Test A postemergence; conditions: Amaranthus retroflexus, post-emergence, 240 h, read-out: Plant response rating, Pigweed
How it was run: as §1

[14] = tested on: ragweed (common ragweed, Ambrosia elatior); assay: Test A postemergence; conditions: Ambrosia artemisiifolia, post-emergence, 240 h, read-out: Plant response rating, Ragweed
How it was run: as §1

[15] = tested on: ryegrass, Italian (Italian ryegrass, Lolium multiflorum); assay: Test A postemergence; conditions: Lolium multiflorum, post-emergence, 240 h, read-out: Plant response rating, Ryegrass, Italian
How it was run: as §1

[16] = tested on: wheat (Triticum aestivum); assay: Test A postemergence; conditions: Triticum aestivum, post-emergence, 240 h, read-out: Plant response rating, Wheat
How it was run: as §1

[17] = tested on: barnyardgrass (Echinochloa crus-galli); assay: Test B flooded paddy test; conditions: Echinochloa crus-galli, 250 g ai/ha, Flood; 0 to 100 scale where 0 is no effect and 100 is complete control; read-out: Barnyardgrass plant response rating
How it was run: (§2)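 Compound goes directly into floodwater once pots are flooded 3 cm above soil, targeting plants at two leaves; the water depth is then held for the test duration. Plants sit 13–15 d in a greenhouse and are rated visually, 100 denoting complete control.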

[18] = tested on: ducksalad (Heteranthera limosa); assay: Test B flooded paddy test; conditions: Heteranthera limosa, 250 g ai/ha, Flood; 0 to 100 scale where 0 is no effect and 100 is complete control; read-out: Ducksalad plant response rating
How it was run: as §2

[19] = tested on: rice (Oryra sativa); assay: Test B flooded paddy test; conditions: Oryza sativa, 250 g ai/ha, Flood; 0 to 100 scale where 0 is no effect and 100 is complete control; read-out: Rice plant response rating
How it was run: as §2

[20] = tested on: sedge, umbrella (small-flower umbrella sedge, Cyperus difformis); assay: Test B flooded paddy test; conditions: Cyperus difformis, 250 g ai/ha, Flood; 0 to 100 scale where 0 is no effect and 100 is complete control; read-out: Sedge, Umbrella plant response rating
How it was run: as §2

[21] = 125 g ai/ha, Postemergence, visual injury after approximately 10 d, 0 to 100 scale where 0 is no effect and 100 is complete control
[22] = 500 g ai/ha, postemergence, visual injury, 0 to 100 scale (0 no effect, 100 complete control), approx. 10 d

Work on `CN1CC[C@H](c2ccc(OC(F)(F)F)cc2)[C@@H](C(=O)Nc2cccc(Cl)c2F)C1=O` [Compound 1002] yielded a pest or weed control at 125 g/ha ([1]; 125 g ai/ha, Preemergence, visual injury rating after approximately 10 d, read-out: Kochia plant response rating (0 to 100 scale, 0 is no effect, 100 is complete control)) of 0%, a pest or weed control at 500 g/ha ([1]; 500 g ai/ha, preemergence, visual injury rating about 10 d after treatment, 0 to 100 scale (0 no effect, 100 complete control), read-out: Kochia plant response rating) of 0% and a pest or weed control at 125 g/ha ([2]; 125 g ai/ha, Preemergence, visual injury rating after approximately 10 d, read-out: Barnyardgrass plant response rating (0 to 100 scale, 0 is no effect, 100 is complete control)) of 20%. The pest or weed control at 500 g/ha ([2]; 500 g ai/ha, preemergence, visual injury rating about 10 d after treatment, 0 to 100 scale (0 no effect, 100 complete control), read-out: Barnyardgrass plant response rating) was 70%, the pest or weed control at 125 g/ha ([3]; 125 g ai/ha, Preemergence, visual injury rating after approximately 10 d, read-out: Foxtail, Giant plant response rating (0 to 100 scale, 0 is no effect, 100 is complete control)) was 30% and the pest or weed control at 500 g/ha ([3]; 500 g ai/ha, preemergence, visual injury rating about 10 d after treatment, 0 to 100 scale (0 no effect, 100 complete control), read-out: Foxtail, Giant plant response rating) was 80%. The pest or weed control at 125 g/ha ([4]; 125 g ai/ha, Preemergence, visual injury rating after approximately 10 d, read-out: Pigweed plant response rating (0 to 100 scale, 0 is no effect, 100 is complete control)) was 20%, the pest or weed control at 500 g/ha ([4]; 500 g ai/ha, preemergence, visual injury rating about 10 d after treatment, 0 to 100 scale (0 no effect, 100 complete control), read-out: Pigweed plant response rating) was 50% and the pest or weed control at 125 g/ha ([5]; 125 g ai/ha, Preemergence, visual injury rating after approximately 10 d, read-out: Ragweed plant response rating (0 to 100 scale, 0 is no effect, 100 is complete control)) was 0%. For the same compound, the pest or weed control at 500 g/ha ([5]; 500 g ai/ha, preemergence, visual injury rating about 10 d after treatment, 0 to 100 scale (0 no effect, 100 complete control), read-out: Ragweed plant response rating) was 0%, the pest or weed control at 125 g/ha ([6]; 125 g ai/ha, Preemergence, visual injury rating after approximately 10 d, read-out: Ryegrass, Italian plant response rating (0 to 100 scale, 0 is no effect, 100 is complete control)) was 0% and the pest or weed control at 500 g/ha ([6]; 500 g ai/ha, preemergence, visual injury rating about 10 d after treatment, 0 to 100 scale (0 no effect, 100 complete control), read-out: Ryegrass, Italian plant response rating) was 0%. It also gave a pest or weed control at 125 g/ha [7, 21] of 0%, a pest or weed control at 500 g/ha [7, 22] of 0% and a pest or weed control at 125 g/ha [8, 21] of 0%. For the same compound, the pest or weed control at 500 g/ha [8, 22] was 40%, the pest or weed control at 125 g/ha [9, 21] was 50% and the pest or weed control at 500 g/ha [9, 22] was 90%. The pest or weed control at 125 g/ha [10, 21] was 0%, the pest or weed control at 500 g/ha [10, 22] was 0% and the Corn plant response rating (crop injury, 0 = no effect, 100 = complete kill) at 125 g/ha [11, 21] was 0%. The Corn plant response rating (crop injury, 0 = no effect, 100 = complete kill) at 500 g/ha [11, 22] was 0%, the pest or weed control at 125 g/ha [12, 21] was 0% and the pest or weed control at 500 g/ha [12, 22] was 50%. It also gave a pest or weed control at 125 g/ha [13, 21] of 0%, a pest or weed control at 500 g/ha [13, 22] of 0% and a pest or weed control at 125 g/ha [14, 21] of 0%. It also gave a pest or weed control at 500 g/ha [14, 22] of 0%, a pest or weed control at 125 g/ha [15, 21] of 0% and a pest or weed control at 500 g/ha [15, 22] of 0%. The plant injury at 125 g/ha [16, 21] was 0%, the plant injury at 500 g/ha [16, 22] was 0% and the pest or weed control at 250 g/ha [17] was 0%. For the same compound, the pest or weed control at 250 g/ha [18] was 60%, the pest or weed control at 250 g/ha [19] was 0% and the pest or weed control at 250 g/ha [20] was 0%.
